Tested on: skin
Test: Affymetrix microarray of skin, DBP-4 hr and analogs vs. untreated; gene selection by log-2 fold change, Wilcoxon, Kendall tau (Tables 8, 9)
Type: in vivo, mouse

## CCCCOC(=O)c1ccccc1C(=O)OCCCC [DBP, dibutylphthalate]
Gene Pigp, NM_019543_at, DBP-4 hr vs. untreated
  Wilcoxon: Pigp: No
Gene Pigp, NM_019543_at, gene expression vs. output
  Kendall: Pigp: Yes
Gene Pkp4, NM_026361_at, DBP-4 hr vs. untreated
  Wilcoxon: Pkp4: No
Gene Pkp4, NM_026361_at, gene expression vs. output
  Kendall: Pkp4: Yes
Gene Plk3, NM_013807_at, DBP-4 hr vs. untreated
  Wilcoxon: Plk3: No
Gene Plk3, NM_013807_at, gene expression vs. output
  Kendall: Plk3: Yes
Gene Polr2g, NM_026329_at, DBP-4 hr vs. untreated
  Wilcoxon: Polr2g: No
Gene Polr2g, NM_026329_at, gene expression vs. output
  Kendall: Polr2g: Yes
Gene Pparg, NM_011146_at, DBP-4 hr vs. untreated
  Wilcoxon: Pparg: No
Gene Pparg, NM_011146_at, gene expression vs. output
  Kendall: Pparg: Yes
Gene Ppp1r7, NM_023200_at, DBP-4 hr vs. untreated
  Wilcoxon: Ppp1r7: No
Gene Ppp1r7, NM_023200_at, gene expression vs. output
  Kendall: Ppp1r7: Yes
Gene Prokr1, NM_021381_at, DBP-4 hr vs. untreated
  Wilcoxon: Prokr1: No
Gene Prokr1, NM_021381_at, gene expression vs. output
  Kendall: Prokr1: Yes
Gene Ptpn1, NM_011201_at, DBP-4 hr vs. untreated
  Wilcoxon: Ptpn1: No
Gene Ptpn1, NM_011201_at, gene expression vs. output
  Kendall: Ptpn1: Yes
Gene Rabgef1, NM_019983_at, DBP-4 hr vs. untreated
  Wilcoxon: Rabgef1: No
Gene Rabgef1, NM_019983_at, gene expression vs. output
  Kendall: Rabgef1: Yes
Gene Rai12, NM_018740_at, DBP-4 hr vs. untreated
  Wilcoxon: Rai12: No
Gene Rai12, NM_018740_at, gene expression vs. output
  Kendall: Rai12: Yes
Gene Rbbp6, NM_011247_at, DBP-4 hr vs. untreated
  Wilcoxon: Rbbp6: No
Gene Rbbp6, NM_011247_at, gene expression vs. output
  Kendall: Rbbp6: Yes
Gene Rpl7l1, NM_025433_at, DBP-4 hr vs. untreated
  Wilcoxon: Rpl7l1: No
Gene Rpl7l1, NM_025433_at, gene expression vs. output
  Kendall: Rpl7l1: Yes
Gene Sema4d, NM_013660_at, DBP-4 hr vs. untreated
  Wilcoxon: Sema4d: No
Gene Sema4d, NM_013660_at, gene expression vs. output
  Kendall: Sema4d: Yes
Gene Siae, NM_011734_at, DBP-4 hr vs. untreated
  Wilcoxon: Siae: No
Gene Siae, NM_011734_at, gene expression vs. output
  Kendall: Siae: Yes
Gene Sirt1, NM_019812_at, DBP-4 hr vs. untreated
  Wilcoxon: Sirt1: No
Gene Sirt1, NM_019812_at, gene expression vs. output
  Kendall: Sirt1: Yes
Gene Slc9a3r1, NM_012030_at, DBP-4 hr vs. untreated
  Wilcoxon: Slc9a3r1: No
Gene Slc9a3r1, NM_012030_at, gene expression vs. output
  Kendall: Slc9a3r1: Yes
Gene Slc30a4, NM_011774_at, DBP-4 hr vs. untreated
  Wilcoxon: Slc30a4: No
Gene Slc30a4, NM_011774_at, gene expression vs. output
  Kendall: Slc30a4: Yes
Gene Slc35a1, NM_011895_at, DBP-4 hr vs. untreated
  Wilcoxon: Slc35a1: No
Gene Slc35a1, NM_011895_at, gene expression vs. output
  Kendall: Slc35a1: Yes
Gene Smarcb1, NM_011418_at, DBP-4 hr vs. untreated
  Wilcoxon: Smarcb1: No
Gene Smarcb1, NM_011418_at, gene expression vs. output
  Kendall: Smarcb1: Yes
Gene Srsf6, NM_026499_at, DBP-4 hr vs. untreated
  Wilcoxon: Srsf6: No
Gene Srsf6, NM_026499_at, gene expression vs. output
  Kendall: Srsf6: Yes
Gene Stx17, NM_026343_at, DBP-4 hr vs. untreated
  Wilcoxon: Stx17: No
Gene Stx17, NM_026343_at, gene expression vs. output
  Kendall: Stx17: Yes
Gene Tmed1, NM_010744_at, DBP-4 hr vs. untreated
  Wilcoxon: Tmed1: No
Gene Tmed1, NM_010744_at, gene expression vs. output
  Kendall: Tmed1: Yes
Gene Tmem208, NM_025486_at, DBP-4 hr vs. untreated
  Wilcoxon: Tmem208: No
Gene Tmem208, NM_025486_at, gene expression vs. output
  Kendall: Tmem208: Yes
Gene Tnfrsf1a, NM_011609_at, DBP-4 hr vs. untreated
  Wilcoxon: Tnfrsf1a: No
Gene Tnfrsf1a, NM_011609_at, gene expression vs. output
  Kendall: Tnfrsf1a: Yes
Gene Tnfrsf9, NM_011612_at, DBP-4 hr vs. untreated
  Wilcoxon: Tnfrsf9: No
Gene Tnfrsf9, NM_011612_at, gene expression vs. output
  Kendall: Tnfrsf9: Yes
Gene Trappc2l, NM_021502_at, DBP-4 hr vs. untreated
  Wilcoxon: Trappc2l: No
Gene Trappc2l, NM_021502_at, gene expression vs. output
  Kendall: Trappc2l: Yes
Gene Tril, NM_025817_at, DBP-4 hr vs. untreated
  Wilcoxon: Tril: No
Gene Tril, NM_025817_at, gene expression vs. output
  Kendall: Tril: Yes
Gene Trim12a, NM_023835_at, DBP-4 hr vs. untreated
  Wilcoxon: Trim12a: No
Gene Trim12a, NM_023835_at, gene expression vs. output
  Kendall: Trim12a: Yes
Gene Trip4, NM_019797_at, DBP-4 hr vs. untreated
  Wilcoxon: Trip4: No
Gene Trip4, NM_019797_at, gene expression vs. output
  Kendall: Trip4: Yes
Gene Trp63, NM_011641_at, DBP-4 hr vs. untreated
  Wilcoxon: Trp63: No
Gene Trp63, NM_011641_at, gene expression vs. output
  Kendall: Trp63: Yes
Gene Trpv2, NM_011706_at, DBP-4 hr vs. untreated
  Wilcoxon: Trpv2: No
Gene Trpv2, NM_011706_at, gene expression vs. output
  Kendall: Trpv2: Yes
Gene Tsn, NM_011650_at, DBP-4 hr vs. untreated
  Wilcoxon: Tsn: No
Gene Tsn, NM_011650_at, gene expression vs. output
  Kendall: Tsn: Yes
Gene Ufc1, NM_025388_at, DBP-4 hr vs. untreated
  Wilcoxon: Ufc1: No
Gene Ufc1, NM_025388_at, gene expression vs. output
  Kendall: Ufc1: Yes
Gene Ulk2, NM_013881_at, DBP-4 hr vs. untreated
  Wilcoxon: Ulk2: No
Gene Ulk2, NM_013881_at, gene expression vs. output
  Kendall: Ulk2: Yes
Gene Wbp1, NM_016757_at, DBP-4 hr vs. untreated
  Wilcoxon: Wbp1: No
Gene Wbp1, NM_016757_at, gene expression vs. output
  Kendall: Wbp1: Yes
Gene Zfp68, NM_013844_at, DBP-4 hr vs. untreated
  Wilcoxon: Zfp68: No
Gene Zfp68, NM_013844_at, gene expression vs. output
  Kendall: Zfp68: Yes
Gene Zfp90, NM_011764_at, DBP-4 hr vs. untreated
  Wilcoxon: Zfp90: No
Gene Zfp90, NM_011764_at, gene expression vs. output
  Kendall: Zfp90: Yes
Gene Zkscan3, NM_023685_at, DBP-4 hr vs. untreated
  Wilcoxon: Zkscan3: No
Gene Zkscan3, NM_023685_at, gene expression vs. output
  Kendall: Zkscan3: Yes
Gene Zkscan6, NM_026107_at, DBP-4 hr vs. untreated
  Wilcoxon: Zkscan6: No
Gene Zkscan6, NM_026107_at, gene expression vs. output
  Kendall: Zkscan6: Yes
mouse, in vivo
  1110032A04Rik NM_133675_at ≧2-Fold change: No
  1600029D21Rik (NM_029639_at) ≧2-Fold change: Yes
  2010002N04Rik (NM_134133_at) ≧2-Fold change: Yes
  2310016C08Rik (NM_023516_at) ≧2-Fold change: Yes
  2510002D24Rik NM_001033164_at ≧2-Fold change: No
  2510009E07Rik NM_001001881_at ≧2-Fold change: No
  2610528A11Rik XR_105647_at ≧2-Fold change: No
  1500015010Rik NM_024283_at ≧2-Fold change: No
  1810011010Rik (NM_026931_at) ≧2-Fold change: Yes
  3110079015Rik NM_028473_at ≧2-Fold change: No
  A2m NM_175628_at ≧2-Fold change: No

Reference: US20150307938A1, “METHOD TO IDENTIFY A NOVEL CLASS OF IMMUNOLOGIC ADJUVANTS” (Lancell, L.L.C., priority 2011, published 2015)
